From patent publication US9573899B2, “USP7 inhibitor compounds and methods of use” (Genentech, Inc., priority 2015, dated 2017)
“Also recorded” adds a separate entry of the source.

How the values were obtained:
[1] = molecular target: T1, USP7, full-length, native C-Terminus (Homo sapiens, UniProt Q93009); test: Biochemical USP7 assay with Ubiquitin-Rho110 substrate, compounds pre-incubated with USP7 (USP7_Ub-Rho preInc); conditions: compounds pre-mixed with USP7, 1 hour incubation, before substrate; read-out: USP7 Ub-Rho preInc (IC50)
T1 construct: USP7, full-length, native C-Terminus, 0.2 nM
Outline: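 Full-length USP7 (0.2 nM) cleaving Ubiquitin-Rho110 (1 uM) in pH 7.5 Tris buffer with DTT, 1 h at room temperature, acetic-acid quenched; Rho110 fluorescence at 485/535 nm. Pre-incubation variant: compound and USP7 mixed 1 h before substrate addition. IC50 from % inhibition versus no-enzyme and uninhibited controls.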

USP7 catalytic domain = USP7 catalytic domain (Homo sapiens, UniProt Q93009); test: Ub-Rho110 DUB assay, Table 2, USP7 catalytic domain; type: biochemical; conditions: read-out: Ub-Rho110 IC50, USP7 cat
Experimental: Biochemical USP7 assays using Ubiquitin-Rho110 as a substrate: The final assay conditions were as follows: The Reaction Buffer consisted of: 50 mM Tris (pH 7.5), 0.01% (v/v) Triton X-100, 2.5 mM Dithiothreitol, 0.1% (w/v) bovine gamma globulin (Sigma cat #G5009-25G); USP7, full-length, native C-Terminus, 0.2 nM; the substrate, Ubiquitin-Rho110 (Boston Biochem cat #U-555), 1 uM. Reactions were carried out for 1 hour at room temperature, in black 20 μL volume polystyrene ProxiPlate 384 F Plus® (PerkinElmer cat #6008260).
Test compounds, including a control USP7 inhibitor (Ub-aldehyde, Boston Biochem cat #U-201) were serially diluted in DMSO, in 384 well clear V-bottom polypropylene plates (Greiner cat #781280). Compounds in DMSO were diluted 10-fold into Reaction Buffer, to achieve 3-fold the final desired concentration. The substrate, Ubiquitin-Rho110 (Boston Biochem cat #U-555), was prepared at 3 μM (3-fold the final concentration) and 5 ul was dispensed into the reaction plate. 5 ul of the compounds (diluted in Reaction Buffer at 3-fold the final concentration) were transferred to the reaction plate. 5 ul of 0.6 nM USP7 (diluted in Reaction Buffer at 3-fold the final concentration) was transferred to the reaction plate to initiate the reaction. After 1 hour incubation at room temperature the reaction was quenched by the addition of 5 ul of 400 mM acetic acid. The enzymatic product was measured by quantifying the fluorescence signal of cleaved Rhodamine-110 using excitation at 485 nm and emission at 535 nm. When pre-incubation of USP7 with compounds was required, the order of addition of reagents was modified to pre-mix the compounds with USP7 (with a 1 hour incubation period), prior to the addition of the substrate and the initiation of the reaction period. Percentage inhibition values were calculated relative to a no enzyme control and a uninhibited enzyme control. Curve fitting and IC50 calculations were carried out using Genedata Screener software.

endogenous USP7 = molecular target: T2, endogenous USP7 (Homo sapiens, UniProt Q93009); test: Activity-based profiling of deubiquitinases with HA-tagged ubiquitin probes, western blot (FIG. 5, 6); type: biochemical; conditions: 15 μM, 293T cell lysate
T2 construct: endogenous in cells; host or cells: 293T cell lysate
Experimental: 293T cells at 80% confluency are harvested by rinsing the plate one time with 10 ml PBS followed by scraping. Cells are cleared by spinning them for 3 min at 350 g at 4° C. and the pellet is flash-frozen in liquid nitrogen and stored at −80° C. until lysis. Frozen cells are lysed by quickly re-thawing them in Buffer A (50 mM Tris-HCl pH 7.5, 250 mM Sucrose, 5 mM TCEP, 2 mM ATP, 50 μM phenylmethylsulfonyl fluoride (PMSF), 120 mM NaCl, 5 mM MgCl2) and the lysate is cleared by centrifugation by spinning at 18,000 g at 4° C. […] Subsequently, the 4 samples are all incubated with 6.6 μg/ml of either one of the following activity-based DUB probes (the same probe for each of the 4 samples): HA-tagged ubiquitin vinyl sulfone (Boston Biochem, Cambridge, Mass.), HA-tagged ubiquitin propargylamine (UbiQ Bio BV, Amsterdam, The Netherlands) or HA-tagged ubiquitin vinylmethyl ester (UbiQ Bio BV, Amsterdam, The Netherlands), 1200 rpm, at 25° C., for 1 hr. The reaction is terminated by adding a 20% SDS solution to a final concentration of 0.4% for at least 30 min at room temperature, rotating. Subsequently, the reacted lysate is diluted 10× with Buffer B (50 mM Tris-HCl pH 7.5, 150 mM NaCl, 5 mM EDTA, protease inhibitor cocktail EDTA-free (Roche, Mannheim, Germany), 50 μM PMSF, 0.5% NP-40). 60-100 μl slurry depending on input protein amount of pre-equilibrated anti-HA affinity matrix (Roche, Mannheim, Germany) are added and HA-tagged proteins are immunopurified with this matrix by rotating the samples over night at 4° C. The next day the beads are washed with the following buffers in this order: three times ice-cold Buffer B, one time ice-cold Buffer B NP-40 free, and three times ice-cold 15 mM TEAB pH 8.5. Spins between washes are performed at 2000 g and 4° C. […]

[2] = tested on: KMS-21BM and KMS-28PE multiple myeloma cells; test: Cell Titer Glo viability of multiple myeloma cells (FIG. 13A); type: cell-based; conditions: compared to 89
Experimental: Seventy two hours after compounds were added, CellTitre Glo (CTG) reagent was added following the protocol provided by the manufacturer (Promega). In the experiment to test compound dependency on USP7, 3× more USP7 null cells were plated per well (7,500 vs. 2,500 for wild-type (WT) cells), given the slower proliferation of USP7 null cells. For the multiple myeloma experiment, cells seeded in low serum and treated with compounds immediately. Twenty four hours later, serum was added back to normal levels. CTG assay was done 24 h later i.e. 48 h after compounds were added instead of 72 hrs later for the adherent cells.

[3] = tested on: colon cancer cell lines RKO and RKO-E6, and cervical cancer cell lines Vibo and SiHA; test: Incucyte cell proliferation in RKO, RKO-E6, Vibo and SiHA cells (FIG. 15); type: cell-based
Experimental: 2,500-5,000 cells were seeded in 1-well of a 96-well plate (Corning; 3904). The following day, the media was changed from normal (10%) to low serum (0.5%) containing vehicle (DMSO) or compounds. 16-24 h later FBS was added to each well to bring serum levels back to normal (10%). Cells were then allowed to grow for 2 days. All treatments were done in triplicate. The day after cells were seeded, the media was changed to low serum media containing 2 μM CellEvent Caspase 3/7 reagent (Life Technologies; C10423) and compounds. The plates were placed in an IncuCyte (Essen Bioscience, Inc.) live cell imager and scanning was started 15-20 mins after. IncuCyte™ ZOOM facilitates live-cell monitoring via customized imaging protocols. Images were taken every 2 h for at least 3 days, using a 10× objective. Phase contrast was used to measure cell confluency/density while green fluorescence was used to measure caspase activity. The images were analyzed using IncuCyte software (Basic Analysis parameters) and a ratio of caspase activity to cell density was determined.

T2 sequence (Q93009 whole entry): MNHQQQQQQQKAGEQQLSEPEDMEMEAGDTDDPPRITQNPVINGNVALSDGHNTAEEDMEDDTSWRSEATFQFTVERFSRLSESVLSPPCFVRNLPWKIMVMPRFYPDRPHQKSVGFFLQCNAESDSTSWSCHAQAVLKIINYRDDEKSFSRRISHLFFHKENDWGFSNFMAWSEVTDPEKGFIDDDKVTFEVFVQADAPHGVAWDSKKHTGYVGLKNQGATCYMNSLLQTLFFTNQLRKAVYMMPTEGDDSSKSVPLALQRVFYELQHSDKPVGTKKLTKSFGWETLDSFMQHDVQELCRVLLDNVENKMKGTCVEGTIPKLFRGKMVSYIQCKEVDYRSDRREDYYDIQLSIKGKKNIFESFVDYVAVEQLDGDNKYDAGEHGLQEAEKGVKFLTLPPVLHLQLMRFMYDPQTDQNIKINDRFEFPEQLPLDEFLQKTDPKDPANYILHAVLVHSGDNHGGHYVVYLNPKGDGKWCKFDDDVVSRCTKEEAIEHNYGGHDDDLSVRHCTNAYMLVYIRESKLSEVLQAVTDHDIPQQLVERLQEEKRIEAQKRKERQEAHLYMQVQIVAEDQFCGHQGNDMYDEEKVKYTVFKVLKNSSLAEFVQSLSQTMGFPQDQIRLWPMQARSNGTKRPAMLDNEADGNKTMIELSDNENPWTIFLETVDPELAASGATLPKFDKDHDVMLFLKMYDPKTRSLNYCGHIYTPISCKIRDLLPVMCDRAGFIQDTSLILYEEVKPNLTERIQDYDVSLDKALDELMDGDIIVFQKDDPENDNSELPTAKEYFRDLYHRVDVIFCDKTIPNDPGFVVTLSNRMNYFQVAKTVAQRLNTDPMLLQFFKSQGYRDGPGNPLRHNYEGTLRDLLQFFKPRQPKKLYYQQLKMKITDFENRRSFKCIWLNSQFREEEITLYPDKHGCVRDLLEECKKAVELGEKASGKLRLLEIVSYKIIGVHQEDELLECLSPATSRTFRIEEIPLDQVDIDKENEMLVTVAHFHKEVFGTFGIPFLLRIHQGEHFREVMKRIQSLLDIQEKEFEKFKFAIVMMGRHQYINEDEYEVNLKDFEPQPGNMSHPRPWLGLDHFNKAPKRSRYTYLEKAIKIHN
USP7 catalytic domain, sequence (Q93009 214-521 limits assumed): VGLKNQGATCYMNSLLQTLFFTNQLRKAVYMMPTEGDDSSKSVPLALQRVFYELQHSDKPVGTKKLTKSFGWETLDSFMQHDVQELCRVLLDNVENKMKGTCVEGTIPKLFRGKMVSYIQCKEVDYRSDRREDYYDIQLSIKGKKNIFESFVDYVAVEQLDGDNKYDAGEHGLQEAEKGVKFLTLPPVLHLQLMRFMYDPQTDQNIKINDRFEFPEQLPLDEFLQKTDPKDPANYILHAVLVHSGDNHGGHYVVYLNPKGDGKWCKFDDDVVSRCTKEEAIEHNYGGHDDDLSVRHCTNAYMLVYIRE
T1 sequence (Q93009 whole entry): as the sequence (Q93009 whole entry) above

IC50 [1]: 2.1 µM
IC50 (USP7 catalytic domain): 0.43 µM
HA-probe-conjugated band corresponding to USP7 (endogenous USP7; western blot): decreased
SMILES: CCc1c(-c2ccc3[nH]ncc3c2)cnc(N)c1-c1ccc(O)cc1 [Compound 88, 4-[2-amino-4-ethyl-5-(1H-indazol-5-yl)-3-pyridyl]phenol]
selective antagonism of endogenous USP7 over other DUBs (endogenous USP7; evaluated by western blotting): selective DUB inhibition; also recorded: selectively antagonizes endogenous USP7 over other DUBs
cell viability (Cell Titer Glo signal) [2]: decrease in cell viability
cell viability (Incucyte cell proliferation) [3]: decreases cell viability
